As usually defined, the IC50 is the concentration that inhibits the measured activity by half.

These results are taken from ChEMBL document CHEMBL3232722, “Synthesis and kinase inhibitory activity of new sulfonamide derivatives of pyrazolo[4,3-e][1,2,4]triazines” (Eur J Med Chem, 2014).

Assay [1] deals with T1, Tyrosine-protein kinase ABL1 (Homo sapiens, UniProt P00519). The assay is described as follows: Inhibition of recombinant Abl kinase (unknown origin) expressed in Sf9 cells using GGEAIYAAPFKK as substrate in presence of [gamma33P]ATP.
Assay [2] relates to MDA-MB-231. The assay is described as follows: In vitro antiproliferative activity against human MDA-MB-231 cells assessed as decrease in cell vaibility after 24 hrs by MTT assay. The assay is classed as functional, cell-based. The conditions noted are these: for IC50: MDA-MB-231, 24 h. Background: Tetrazolium dyes change colour on reduction, which living cells bring about.
For assay [3], the target named is Cyclin-dependent kinase 2/cyclin E1 (Homo sapiens, UniProt P24941). The assay is described as follows: Inhibition of CDK2/cyclin E (unknown origin) expressed in Sf9 cells using histone H1 as substrate in presence of [gamma33P]ATP.
Assay [4] concerns HL-60. The assay is described as follows: In vitro antiproliferative activity against human HL60 cells assessed as decrease in cell viability after 24 hrs by MTT assay. The assay is classed as functional, cell-based. As to conditions: for IC50: HL-60, 24 h.
For assay [5], the system named is K562. The experiment in a line: Inhibition of tyrosine phosphorylation of protein with molecular weight between 40 and 60 kDa in human K562 cells at 1 to 100 uM after 1 hr by immunoblot analysis. The assay is classed as functional, cell-based.
Assay [6] has as its system BV-173. The assay is described as follows: (§1) In vitro antiproliferative activity against human BV173 cells assessed as decrease in cell viability after 24 hrs by MTT assay. The assay is classed as functional, cell-based.
Assay [7] can be described thus: as §1. The assay is classed as functional, cell-based. The conditions noted are these: BV-173, 24 h.
Assay [8] relates to MCF7. The assay is described as follows: Cytostatic activity against human MCF7 cells assessed as decrease in [3H]thymidine incorporation into DNA after 24 hrs by liquid scintillation counting analysis. The assay is classed as functional, cell-based. A general note: Incorporation of labelled thymidine or its analogues reports DNA synthesis.
Assay [9] deals with CCRF-CEM. The experiment in a line: In vitro antiproliferative activity against human CCRF-CEM cells assessed as decrease in cell viability after 24 hrs by MTT assay. The assay is classed as functional, cell-based.
In assay [10] the test system is MDA-MB-231. The experiment in a line: Cytostatic activity against human MDA-MB-231 cells assessed as decrease in [3H]thymidine incorporation into DNA after 24 hrs by liquid scintillation counting analysis. The assay is classed as functional, cell-based.
For assay [11], the system named is MCF7. The experiment in a line: In vitro antiproliferative activity against human MCF7 cells assessed as decrease cell viability after 24 hrs by MTT assay. The assay is classed as functional, cell-based. The conditions noted are these: for IC50: MCF7, 24 h.
Assay [12] has as its system K562. The experiment in a line: In vitro antiproliferative activity against human K562 cells assessed as decrease in cell viability after 24 hrs by MTT assay. The assay is classed as functional, cell-based. The conditions noted are these: for IC50: K562, 24 h.
Assay [13] concerns the target T2, Bcr/Abl fusion protein (Homo sapiens) (UniProt P00519+P11274). The assay is described as follows: Inhibition of Bcr/Abl kinase tyrosine phosphorylation in human K562 cells at 1 to 100 uM after 1 hr by immunoblot analysis. The assay is classed as cell-based. On the technique in general: A western blot detects proteins with antibodies after separation by electrophoresis.

For assay [14], the system named is K562. The experiment in a line: Induction of apoptosis in human K562 cells assessed as increase in sub-diploid cell population at 10 to 100 uM after 24 hrs by propidium iodide staining based flow cytometry. The assay is classed as functional.
Assay [15] concerns the target T2, Bcr/Abl fusion protein (Homo sapiens). The assay is described as follows: Inhibition of Bcr/Abl kinase in human K562 cells assessed as decrease in STAT5 phosphorylation at Tyr694 after 1 hr by immunoblot analysis. The assay is classed as cell-based.
The target of assay [16] is T1, Tyrosine-protein kinase ABL1. The experiment in a line: Inhibition of Abl kinase tyrosine phosphorylation in human K562 cells at 1 to 100 uM after 1 hr by immunoblot analysis. The assay is classed as cell-based.
The target in assay [17] is Casein kinase II subunit alpha (Homo sapiens, UniProt P68400). The experiment in a line: Inhibition of CK2alpha1 (unknown origin) using casein as substrate in presence of [gamma33P]ATP.
In assay [18] the test system is K562. The assay is described as follows: Effect on cell cycle distribution in human K562 cells after 24 hrs by propidium iodide staining based flow cytometry. The assay is classed as functional.
Assay [19] concerns K562. The experiment in a line: Antiproliferative activity against human K562 cells assessed as increase in number of cells with compromised cell membranes at 10 to 100 uM after 24 hrs by propidium iodide exclusion assay based flow cytometry. The assay is classed as functional.
The target in assay [20] is T1, Tyrosine-protein kinase ABL1. The experiment in a line: Inhibition of Abl kinase tyrosine phosphorylation in human K562 cells after 1 hr by immunoblot analysis. The assay is classed as cell-based.
In assay [21] the test system is K562. The assay is described as follows: Inhibition of tyrosine phosphorylation of protein with molecular weight between 40 and 60 kDa in human K562 cells after 1 hr by immunoblot analysis. The assay is classed as functional, cell-based.
Assay [22] addresses T2, Bcr/Abl fusion protein (Homo sapiens). The assay is described as follows: Inhibition of Bcr/Abl kinase tyrosine phosphorylation in human K562 cells after 1 hr by immunoblot analysis. The assay is classed as cell-based.
In assay [23] the test system is MDA-MB-231. The assay is described as follows: Ratio of IC50 for human MDA-MB-231 cells to IC50 for human K562 cells. The assay is classed as functional.
The test system of assay [24] is K562. The conditions noted are these: Homo sapiens, 10 uM.
Description: Inhibition of tyrosine phosphorylation of protein with molecular weight between 40 and 60 kDa in human K562 cells at 10 uM after 1 hr by immunoblot analysis
Assay [25] has as its system MCF7. The experiment in a line: Ratio of IC50 for human MCF7 cells to IC50 for human K562 cells. The assay is classed as functional.
For assay [26], the target named is T2, Bcr/Abl fusion protein (Homo sapiens). The experiment in a line: Inhibition of Bcr/Abl kinase in human K562 cells assessed as decrease in CrkL phosphorylation at Tyr207 at 1 to 100 uM after 1 hr by immunoblot analysis. The assay is classed as cell-based.
The target in assay [27] is T1, Tyrosine-protein kinase ABL1. The assay is described as follows: Inhibition of recombinant Abl kinase (unknown origin) expressed in Sf9 cells assessed as residual enzyme activity using GGEAIYAAPFKK as substrate at 50 uM in presence of [gamma33P]ATP.
Assay [28] shares this target. The assay is described as follows: Inhibition of recombinant Abl kinase (unknown origin) expressed in Sf9 cells assessed as residual enzyme activity using GGEAIYAAPFKK as substrate at 10 uM in presence of [gamma33P]ATP.
The target is the same in assay [29]. The assay is described as follows: Inhibition of recombinant Abl kinase (unknown origin) expressed in Sf9 cells assessed as residual enzyme activity using GGEAIYAAPFKK as substrate at 25 uM in presence of [gamma33P]ATP.

Active and inactive are the calls of the source. No cut-off for these calls is given here.

T2 sequence (P00519 whole entry, looked up, the tested form may be a part): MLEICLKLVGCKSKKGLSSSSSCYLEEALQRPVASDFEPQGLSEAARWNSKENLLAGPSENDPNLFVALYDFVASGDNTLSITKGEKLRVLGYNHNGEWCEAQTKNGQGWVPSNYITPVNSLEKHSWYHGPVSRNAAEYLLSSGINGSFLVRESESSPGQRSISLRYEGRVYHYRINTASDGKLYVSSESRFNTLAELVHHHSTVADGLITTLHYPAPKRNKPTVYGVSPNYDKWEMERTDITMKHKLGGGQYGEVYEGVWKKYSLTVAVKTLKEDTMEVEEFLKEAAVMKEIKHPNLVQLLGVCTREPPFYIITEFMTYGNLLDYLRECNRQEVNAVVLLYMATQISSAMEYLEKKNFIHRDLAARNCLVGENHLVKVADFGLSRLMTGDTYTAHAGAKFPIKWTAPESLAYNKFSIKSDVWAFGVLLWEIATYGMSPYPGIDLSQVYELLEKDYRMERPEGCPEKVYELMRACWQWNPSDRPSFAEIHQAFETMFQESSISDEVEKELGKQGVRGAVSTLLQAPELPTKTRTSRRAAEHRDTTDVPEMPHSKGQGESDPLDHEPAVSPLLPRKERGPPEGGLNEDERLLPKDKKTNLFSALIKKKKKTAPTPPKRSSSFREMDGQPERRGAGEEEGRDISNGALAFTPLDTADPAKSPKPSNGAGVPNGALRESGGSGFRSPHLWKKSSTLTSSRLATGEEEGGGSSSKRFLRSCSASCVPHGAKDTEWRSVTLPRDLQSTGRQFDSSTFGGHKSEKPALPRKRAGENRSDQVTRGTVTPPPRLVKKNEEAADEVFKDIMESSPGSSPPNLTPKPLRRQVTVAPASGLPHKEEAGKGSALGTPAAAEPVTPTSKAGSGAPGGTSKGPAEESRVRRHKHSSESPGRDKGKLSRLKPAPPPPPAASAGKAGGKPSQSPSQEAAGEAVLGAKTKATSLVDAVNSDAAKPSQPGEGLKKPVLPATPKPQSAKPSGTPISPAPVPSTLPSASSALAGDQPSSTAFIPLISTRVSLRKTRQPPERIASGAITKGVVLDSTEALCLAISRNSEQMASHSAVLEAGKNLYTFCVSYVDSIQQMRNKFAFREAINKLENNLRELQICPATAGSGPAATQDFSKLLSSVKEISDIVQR
T2 sequence (P11274 whole entry, looked up, the tested form may be a part): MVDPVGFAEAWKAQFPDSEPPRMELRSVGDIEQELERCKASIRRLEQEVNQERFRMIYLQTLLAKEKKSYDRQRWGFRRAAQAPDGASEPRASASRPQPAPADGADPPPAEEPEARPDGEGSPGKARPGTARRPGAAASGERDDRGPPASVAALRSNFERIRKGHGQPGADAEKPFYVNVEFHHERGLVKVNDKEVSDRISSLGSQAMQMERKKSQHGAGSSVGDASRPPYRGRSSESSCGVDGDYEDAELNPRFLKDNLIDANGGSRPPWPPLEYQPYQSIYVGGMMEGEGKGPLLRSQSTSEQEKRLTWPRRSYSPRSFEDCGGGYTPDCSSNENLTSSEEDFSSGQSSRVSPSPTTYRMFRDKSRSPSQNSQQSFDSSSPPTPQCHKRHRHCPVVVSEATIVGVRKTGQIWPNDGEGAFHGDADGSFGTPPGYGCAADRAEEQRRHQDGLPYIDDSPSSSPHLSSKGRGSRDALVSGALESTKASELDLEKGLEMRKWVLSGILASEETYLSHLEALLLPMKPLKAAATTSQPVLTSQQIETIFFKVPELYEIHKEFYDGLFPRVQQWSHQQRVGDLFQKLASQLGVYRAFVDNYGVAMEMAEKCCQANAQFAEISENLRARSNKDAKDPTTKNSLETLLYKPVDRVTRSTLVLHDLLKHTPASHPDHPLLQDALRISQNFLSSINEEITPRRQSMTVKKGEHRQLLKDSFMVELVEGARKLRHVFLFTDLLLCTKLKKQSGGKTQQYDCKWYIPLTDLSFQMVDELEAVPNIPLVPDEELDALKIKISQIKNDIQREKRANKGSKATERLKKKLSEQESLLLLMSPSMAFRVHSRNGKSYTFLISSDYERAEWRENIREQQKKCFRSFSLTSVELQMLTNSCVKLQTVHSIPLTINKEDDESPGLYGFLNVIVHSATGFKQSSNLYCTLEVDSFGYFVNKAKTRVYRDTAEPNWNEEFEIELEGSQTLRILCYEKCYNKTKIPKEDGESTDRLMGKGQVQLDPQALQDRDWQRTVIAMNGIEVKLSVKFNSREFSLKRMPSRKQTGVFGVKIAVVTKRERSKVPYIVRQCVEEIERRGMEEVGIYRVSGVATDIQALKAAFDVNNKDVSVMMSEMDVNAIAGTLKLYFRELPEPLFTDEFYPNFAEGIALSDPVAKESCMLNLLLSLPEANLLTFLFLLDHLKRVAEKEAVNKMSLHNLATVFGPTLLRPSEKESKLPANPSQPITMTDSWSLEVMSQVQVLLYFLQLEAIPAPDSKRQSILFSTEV
T1 sequence (P00519 whole entry): as the sequence (P00519 whole entry, looked up, the tested form may be a part) above
Chain of Casein kinase II subunit alpha (P68400 whole entry): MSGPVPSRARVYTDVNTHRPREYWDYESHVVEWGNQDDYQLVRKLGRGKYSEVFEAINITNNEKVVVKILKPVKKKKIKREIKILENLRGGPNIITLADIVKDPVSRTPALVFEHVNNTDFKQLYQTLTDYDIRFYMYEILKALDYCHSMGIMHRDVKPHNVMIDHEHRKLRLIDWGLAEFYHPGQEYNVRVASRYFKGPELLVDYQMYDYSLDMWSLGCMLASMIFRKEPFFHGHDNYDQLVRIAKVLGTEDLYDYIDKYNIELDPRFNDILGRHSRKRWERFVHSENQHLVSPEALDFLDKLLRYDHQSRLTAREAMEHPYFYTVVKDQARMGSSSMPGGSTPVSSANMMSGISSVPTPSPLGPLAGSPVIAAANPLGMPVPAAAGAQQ

On to `Cc1nn(C)c2nnc(Nc3ccc(S(=O)(=O)NCCN)cc3)nc12`, for which the concentration for half-maximal inhibition (IC50) in assay [1] worked out at 15 µM; in [2], 120 µM; in assay [3] it was 34.9 µM; in assay [4] (read-out: IC50), 42 µM; in [7], 39 µM; in assay [8], 85 µM. Further, the IC50 in assay [9] is 56 µM; in assay [10], 90 µM; in assay [11] it was 126 µM; in [12] it was 77 µM; in assay [17], more than 50 µM. In addition, the inhibition result in [2], in assay [4], in [6], in [8], in assay [9] and in assay [10] was “Dose-dependent effect” throughout. In addition, the inhibition entry in assay [11], in [12] and in [15] was “Dose-dependent effect” throughout. Also, the inhibition result in [5], in [13] and in assay [16] was “inactive” in each case. The outcome in assay [14] was inactive.

On to `Cc1nn(C)c2nnc(Nc3ccc(S(=O)(=O)N4CCCNCC4)cc3)nc12`, for which the IC50 in assay [1] is 5.9 µM; in assay [2] it was 155 µM; in assay [3] it was more than 50 µM; in [4] (read-out: IC50) it was 38 µM; in assay [7], 22 µM; in assay [8] it was 123 µM. In addition, the IC50 in [9] was 36 µM; in assay [10] it was 150 µM; in assay [11], 140 µM; in [12], 21 µM; in [17] it was more than 50 µM. For the same molecule, the result in assay [18] was inactive. Moreover, the inhibition result in [2], in assay [4], in assay [6], in assay [8], in [9] and in assay [20] was “Dose-dependent effect” each time. Also, the inhibition result in assay [10], in [11], in [12], in [21], in [15] and in assay [22] was “Dose-dependent effect” in each case. The result in [19] and in assay [14] was Active. Further, in assay [23], the “Ratio IC50” value is 7.

On to `Cc1ccc(NC(=O)c2ccc(CN3CCN(C)CC3)cc2)cc1Nc1nccc(-c2cccnc2)n1` [IMATINIB], for which the IC50 was 55 µM in assay [4], 20 µM in assay [7], 45 µM in assay [9] and 13 µM in assay [12]. For the same molecule, in assay [24], the inhibition result is “Active”.

On to `Cc1nn(C)c2nnc(Nc3ccc(S(=O)(=O)N4CCNCC4)cc3)nc12`, for which the IC50 in assay [1] was 5.8 µM; in assay [2] it was 130 µM; in [3], more than 25 µM; in assay [4] (read-out: IC50), 55 µM; in [7] it was 22 µM; in assay [8], 170 µM. Further, the IC50 was 20 µM in assay [9]; 103 µM in assay [10]; 150 µM in assay [11]; 27 µM in assay [12]; more than 25 µM in assay [17]. For the same molecule, the outcome in assay [18] was inactive. Further, the inhibition result in [2], in [4], in assay [6], in assay [8], in [9] and in assay [20] was “Dose-dependent effect” each time. The inhibition entry in assay [10], in assay [11], in [12], in assay [21], in [15] and in assay [22] was “Dose-dependent effect” each time. The result in [19] and in [14] was Active. Moreover, in [25], the “Ratio IC50” value came to 5. The inhibition result in assay [26] is “Active”.

In the case of `Cc1nn(C)c2nnc(Nc3ccc(S(=O)(=O)NCC(O)CO)cc3)nc12` (stereo unspecified), the values for the Activity in [27], in [28] and in assay [29] were 45%, 81% and 56%, respectively. Besides, the IC50 was 34 µM in assay [1]; 140 µM in assay [2]; more than 50 µM in [3]; 44 µM in [4] (read-out: IC50); 42 µM in assay [7]; 130 µM in [8]. The IC50 in [9] is 57 µM; in [10], 130 µM; in assay [11], 200 µM; in assay [12] it was 101 µM; in assay [17], more than 50 µM. Also, the inhibition result in [2], in assay [4], in assay [6], in assay [8], in [9] and in [10] was “Dose-dependent effect” each time. Moreover, the inhibition entry in assay [11] and in assay [12] was “Dose-dependent effect” throughout.
